{"source": "paper PMC6934184", "about": "“Selective DNA-PKcs inhibition extends the therapeutic index of localized radiotherapy and chemotherapy” (The Journal of Clinical Investigation, 2019)", "molecular_target": "T1, BLK (Homo sapiens, UniProt P51451)", "T1 construct": "purchased Thermo Fisher Scientific (Life Technologies) SelectScreen", "T1 sequence (P51451 whole entry)": "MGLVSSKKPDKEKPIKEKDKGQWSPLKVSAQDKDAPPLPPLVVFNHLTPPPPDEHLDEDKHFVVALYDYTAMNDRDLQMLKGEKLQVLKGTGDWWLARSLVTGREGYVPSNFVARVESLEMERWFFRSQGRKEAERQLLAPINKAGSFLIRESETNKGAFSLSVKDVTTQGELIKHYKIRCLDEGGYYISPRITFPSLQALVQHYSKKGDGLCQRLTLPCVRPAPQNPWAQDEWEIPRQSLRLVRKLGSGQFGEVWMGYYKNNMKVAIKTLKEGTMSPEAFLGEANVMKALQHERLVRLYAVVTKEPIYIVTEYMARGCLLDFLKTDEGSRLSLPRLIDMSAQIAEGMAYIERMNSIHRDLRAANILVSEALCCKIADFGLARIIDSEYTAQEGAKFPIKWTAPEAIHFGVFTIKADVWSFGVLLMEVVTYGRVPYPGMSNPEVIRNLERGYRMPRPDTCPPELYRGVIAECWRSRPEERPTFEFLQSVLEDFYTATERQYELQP", "assay": "SelectScreen Z'LYTE", "format": "biochemical", "how_it_was_run": "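Compound tested in SelectScreen activity assays, Z'LYTE for CSF1R, CDK1/cyclin B and MAP2K6 and Adapta for CAMK1. ATP for CAMK1 was listed as 10, and Km app was used for CSF1R. Results are expressed in percent.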"}
{"compound": "CN(C(=O)CN1CCOCC1)c1ccc2sc3c(-c4cccc5c(=O)cc(N6CC7CCC(C6)O7)oc45)cccc3c2c1", "note": "[NU5455]", "values": [{"measurement": "inhibition at 1 µM", "result": -8.9, "unit": "%"}]}
